Source: patent publication US7271161B2, “Platinum complexes as antitumor agents in combination with biochemical modulation” (Board of Regents, the University of Texas System, priority 2002, dated 2007)
Where two headings read alike, the source gives them in different places.

Legend:
[1] = tested on: Human A2780 cell line; experiment: MTT cytotoxicity assay, cisplatin-sensitive ovarian A2780 cells, with or without BSO; format: cell-based; design: key to DMF vs. A2780 Control (Without BSO): DMF = IC50 without BSO / IC50 with BSO; conditions: for DMF vs. A2780 +10 μM BSO (MTC): IC50 without BSO / IC50 with 10 μM BSO (MTC); for DMF vs. A2780 Control (Without BSO): without BSO (reference)
Text: (§1) The ovarian A2780 and 2008 cell lines are sensitive to cisplatin, while the corresponding 2780CP and 2008/C13* cell lines were selected for resistance following in vitro exposure to cisplatin. The SKOV-3 cell line was established from a patient who was resistant to cisplatin therapy and is considered a model of cisplatin resistance. The A2780 and 2780CP cells have wild-type p53 function, while SKOV-3 is devoid of p53 function. The p53 status for the 2008 and 2008/C131 cells is presently not known.
(§2) Procedure for Cytotoxic Evaluation. All cell lines are maintained in RPMI 1640 medium supplemented with 10% fetal bovine serum, 50 μg/ml penicillin, 50 μg/ml streptomycin, 100 μg/ml neomycin and 0.3 mg/ml L-glutamine. The ovarian lines also require 2 μg/ml insulin for maximal growth. Cells are grown as monolayers at 37° C. in a humidified atmosphere of 5% CO2:95% air. Cytotoxicity is determined by a standard MTT assay. Briefly, the exponentially-growing cells are trypsinized to dislodge them before use. After diluting the tumor cells to appropriate concentrations (2,000-30,000 cells/ml), 100 μl aliquots of the cell suspensions are added to each well of a 96-well microtiter plate. The cells are allowed to attach overnight, and then exposed for 24 hr to BSO at a concentration that is equal to or less than maximally tolerated concentration (MTC). At 22 hr after addition of BSO, the platinum complex is added, and 2 hr later the cells are washed and reincubated. After another 5 days, when control cells are in an exponential phase of growth, 50 μl of an MTT solution (3 mg/ml) is added to each well. Following a 3-hr incubation, the medium is removed and replaced by 50 μl of 100% DMSO to dissolve MTT formazan crystals. Plates are agitated on a plate shaker for 5 min, and absorbances are measured at 570 nm in a multiwell scanning spectrophotometer.
(§3) IC50 values, defined as the drug concentration (μM) inhibiting cell growth by 50% compared to control wells, are determined by fitting a sigmoidal curve to the data using a computer program. Resistance factor is calculated as a ratio of the IC50 against resistant cell line to the IC50 against parent cell line. The dose modification factor (DMF) is derived from a ratio of IC50 without BSO to that with BSO.

[2] = tested on: Human 2780CP cell line; experiment: MTT cytotoxicity assay, cisplatin-resistant ovarian 2780CP cells, with or without BSO; format: cell-based; design: key to DMF vs. 2780CP Control (Without BSO) / DMF Control / DMF +BSO (MTC): DMF = IC50 without BSO / IC50 with BSO; conditions: for DMF vs. 2780CP +10 μM BSO: IC50 without BSO / IC50 with 10 μM BSO; for DMF vs. 2780CP +3 mM BSO (MTC): IC50 without BSO / IC50 with 3 mM BSO (MTC); for DMF vs. 2780CP Control (Without BSO): without BSO (reference)
Text: as §1, §2, §3

[3] = tested on: SKOV-3 cell line; experiment: MTT cytotoxicity assay, cisplatin-resistant SKOV-3 cells, with or without BSO; format: cell-based, Human; conditions: SKOV-3; for IC50: Table 4; for DMF +BSO (MTC) / DMF Control: Table 5; for DMF Control: absence of BSO (reference)
Text: as §1, §2, §3

[4] = +10 μM BSO (MTC), 24 hr BSO, read-out: IC50 (μM) vs. A2780 +10 μM BSO (MTC)
[5] = without BSO, 2 hr platinum exposure, MTT after 5 days, read-out: IC50 (μM) vs. A2780 Control (Without BSO)
[6] = +10 μM BSO, read-out: IC50 (μM) vs. 2780CP +10 μM BSO
[7] = +3 mM BSO (MTC), read-out: IC50 (μM) vs. 2780CP +3 mM BSO (MTC)
[8] = IC50 2780CP with 10 μM BSO / IC50 A2780 without BSO
[9] = IC50 2780CP with 3 mM BSO (MTC) / IC50 A2780 without BSO
[10] = IC50 2780CP without BSO / IC50 A2780 without BSO
[11] = without BSO, read-out: IC50 (μM) vs. 2780CP Control (Without BSO)
[12] = BSO at sub-MTC, read-out: IC50 +BSO (MTC)
[13] = absence of BSO, read-out: IC50 Control

Row | SMILES | IC50 [1, 4] | DMF vs. A2780 +10 μM BSO (MTC) [1] | DMF vs. A2780 Control (Without BSO) [1] | IC50 [1, 5] | IC50 [2, 6] | IC50 [2, 7] | Resistance Factor vs. 2780CP +10 μM BSO [2, 8] | Resistance Factor vs. 2780CP +3 mM BSO (MTC) [2, 9] | Resistance Factor vs. 2780CP Control (Without BSO) [2, 10] | DMF vs. 2780CP +10 μM BSO [2] | DMF vs. 2780CP +3 mM BSO (MTC) [2] | DMF vs. 2780CP Control (Without BSO) [2] | IC50 [2, 11] | IC50 [3, 12] | IC50 [3, 13] | DMF +BSO (MTC) ([3]; BSO at sub-MTC) | DMF Control [3] | Resistance Factor vs. 2780CP +10 μM BSO [2] | Resistance Factor vs. 2780CP +3 mM BSO (MTC) [2] | Resistance Factor vs. 2780CP Control (Without BSO) [2]
1 | N[C@@H]1CCCC[C@H]1N.[OH][Pt+2]([OH])([Cl])[Cl] [Complex 14] | 1.17 µM | 1.07 | 1.00 | 1.25 µM | 15.5 µM | 9.54 µM | 12.4 | 7.63 | 12.6 | 1.02 | 1.66 | 1.00 | 15.8 µM |  |  |  |  |  |  | 
2 | [Cl][Pt]1([Cl])[NH][C@@H]2CCCC[C@H]2[NH]1 [Complex 2] | 0.41 µM | 1.37 | 1.00 | 0.56 µM | 3.69 µM | 2.46 µM | 6.59 | 4.39 | 8.23 | 1.25 | 1.87 | 1.00 | 4.61 µM |  |  |  |  |  |  | 
3 | [Cl][Pt]1([Cl])([Cl])([Cl])[NH][C@@H]2CCCC[C@H]2[NH]1 (racemic) [Complex 13] | 4.57 µM | 1.86 | 1.00 | 8.48 µM | 34.9 µM | 23.5 µM |  |  |  | 1.28 | 1.91 | 1.00 | 44.8 µM |  |  |  |  |  |  | 
4 | [NH2][Pt]([NH2])([Cl])[Cl] [Complex 1] | 4.25 µM | 1.59 | 1.00 | 6.75 µM | 82 µM | 58.3 µM |  |  |  | 1.23 | 1.73 | 1.00 | 101 µM |  |  |  |  |  |  | 
5 | [NH2][Pt]([Cl])([Cl])[NH]C1CCC1 [Complex 4] | 0.77 µM | 1.34 | 1.00 | 1.03 µM | 16 µM | 15.8 µM | 15.5 | 15.3 | 16.1 | 1.04 | 1.05 | 1.00 | 16.6 µM |  |  |  |  |  |  | 
6 | [NH2][Pt]([Cl])([Cl])[NH]C1CC1 [Complex 3] | 3.46 µM | 1.05 | 1.00 | 3.64 µM | 62.2 µM | 48.8 µM | 17.1 | 13.4 | 17.5 | 1.02 | 1.31 | 1.00 | 63.7 µM |  |  |  |  |  |  | 
7 | [NH2][Pt]([OH])([OH])([Cl])([Cl])[N]1CCCCCC1 [Complex 18] |  |  |  |  |  |  |  |  |  |  |  |  |  | 14.2 µM | 140 µM | 9.86 | 1.00 |  |  | 
8 | [NH2][Pt]([Cl])([Cl])[N]1CCCC1 [Complex 10] | 2.9 µM | 1.41 | 1.00 | 4.08 µM | 28.2 µM | 17.2 µM | 6.91 | 4.22 | 9.12 | 1.32 | 2.16 | 1.00 | 37.2 µM |  |  |  |  |  |  | 
9 | [NH2][Pt]([OH])([OH])([Cl])([Cl])[NH]C1CCCCC1 [Complex 16] | 3.07 µM | 1.16 | 1.00 | 3.55 µM | 19.6 µM | 8.92 µM | 5.52 | 2.51 | 6.73 | 1.22 | 2.68 | 1.00 | 23.9 µM |  |  |  |  |  |  | 
10 | [NH2][Pt]([Cl])([Cl])([Cl])([Cl])[NH]C1CCCCC1 [Complex 15] | 0.72 µM | 1.26 | 1.00 | 0.91 µM | 10.8 µM | 4.34 µM | 11.9 | 4.77 | 16.9 | 1.43 | 3.55 | 1.00 | 15.4 µM |  |  |  |  |  |  | 
11 | [NH2][Pt]([Cl])([Cl])[N]1CCC1 [Complex 9] | 3.02 µM | 1.41 | 1.00 | 4.27 µM | 18.7 µM | 8.2 µM | 4.38 | 1.92 | 6.37 | 1.45 | 3.32 | 1.00 | 27.2 µM |  |  |  |  |  |  | 
12 | CC(=O)[O][Pt]([NH2])([Cl])([Cl])([O]C(C)=O)[N]1CCCCCC1 [Complex 19] |  |  |  |  |  |  |  |  |  |  |  |  |  | 21.6 µM | 100 µM | 4.63 | 1.00 |  |  | 
13 | [NH2][Pt]([Cl])([Cl])[NH]C1CCCCC1 [Complex 6] | 0.5 µM | 1.26 | 1.00 | 0.63 µM | 6.98 µM | 4.19 µM | 11.1 | 6.65 | 12.0 | 1.08 | 1.80 | 1.00 | 7.55 µM |  |  |  |  |  |  | 
14 | N[C@@H]1CCCC[C@H]1N.[Cl][Pt+2]([Cl])([Cl])[Cl] [Complex 13, Tetraplatin, reference compound] |  |  |  |  |  |  |  |  |  |  |  |  |  |  |  |  |  | 4.12 | 2.77 | 5.28
15 | [NH2][Pt]([Cl])([Cl])[NH]C1CCCC1 [Complex 5, Ammine/cyclopentylamine-dichloro-platinum(II)] | 0.66 µM | 1.11 | 1.00 | 0.73 µM | 14.5 µM | 9.07 µM | 19.9 | 12.4 | 20.8 | 1.05 | 1.68 | 1.00 | 15.2 µM |  |  |  |  |  |  | 
16 | [NH2][Pt]([Cl])([Cl])[NH]C1CCCCCCC1 [Complex 8] | 0.61 µM | 1.26 | 1.00 | 0.77 µM | 5.97 µM | 2.35 µM | 7.75 | 3.05 | 9.62 | 1.24 | 3.15 | 1.00 | 7.41 µM |  |  |  |  |  |  | 
